Here are results for four molecules from publication PMC8545135, “Discovery of Bacterial Fimbria–Glycan Interactions Using Whole-Cell Recombinant Escherichia coli Expression” (mBio, 2021).

The target in test [1] is T1, K88 (E. coli); F4ac (K88ac) fimbriae, MS428(pK88-AC) (Escherichia coli, UniProt P14190).
T1 construct: gene faeG; native F4ac fimbriae on whole cells of fim-negative E. coli MS428, plasmid pK88-AC with F4ac gene cluster
Kind of test: whole-cell SPR, Biacore T200, C1 chip, single-cycle kinetics. In kind it is cell-based. As to conditions: fimbriae on immobilized whole cells; MS428 reference cell. The text has this: whole-cell SPR, Biacore T200, C1 chip, single-cycle kinetics on K88 (E. coli); F4ac (K88ac) fimbriae, MS428(pK88-AC)
On the technique in general: Surface plasmon resonance follows binding to a sensor surface in real time, without labels.

The target of test [2] is T2, FimH (E. coli); type 1 fimbriae, MS428(pPKL4) (Escherichia coli, UniProt P08191).
T2 construct: with Type-1 fimbrial protein, A chain; Protein FimF; Protein FimG
T2 sequence (P08191 22-300): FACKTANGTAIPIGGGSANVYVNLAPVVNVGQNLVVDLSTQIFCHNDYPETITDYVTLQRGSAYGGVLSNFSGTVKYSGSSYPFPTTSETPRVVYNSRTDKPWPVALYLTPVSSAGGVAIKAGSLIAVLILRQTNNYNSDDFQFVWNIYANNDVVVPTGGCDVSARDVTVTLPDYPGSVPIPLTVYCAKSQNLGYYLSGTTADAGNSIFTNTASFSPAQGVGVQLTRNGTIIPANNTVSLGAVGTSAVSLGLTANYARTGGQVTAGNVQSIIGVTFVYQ
T2 sequence (P04128 24-182, further chain): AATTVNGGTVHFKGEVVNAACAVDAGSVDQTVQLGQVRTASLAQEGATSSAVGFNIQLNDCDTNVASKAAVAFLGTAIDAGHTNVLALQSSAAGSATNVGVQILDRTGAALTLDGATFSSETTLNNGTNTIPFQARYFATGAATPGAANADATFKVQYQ
The test is described as above. The test is classed as cell-based. The conditions noted are these: fimbriae on immobilized whole cells; MS428 reference cell. The text has this:
whole-cell SPR, Biacore T200, C1 chip, single-cycle kinetics on FimH (E. coli); type 1 fimbriae, MS428(pPKL4)

Test [3] has as its target T3, FimH^LD (purified FimH lectin-binding domain) (Escherichia coli, UniProt P08191).
T3 construct: purified as previously described
The test is described as follows: SPR, CM5 chip, immobilized protein. The conditions noted are these: glycans 1.6 nM to 1 μM. The text has this:
SPR, CM5 chip, immobilized protein on FimH^LD (purified FimH lectin-binding domain)

T1 sequence (P14190 22-283 limits assumed): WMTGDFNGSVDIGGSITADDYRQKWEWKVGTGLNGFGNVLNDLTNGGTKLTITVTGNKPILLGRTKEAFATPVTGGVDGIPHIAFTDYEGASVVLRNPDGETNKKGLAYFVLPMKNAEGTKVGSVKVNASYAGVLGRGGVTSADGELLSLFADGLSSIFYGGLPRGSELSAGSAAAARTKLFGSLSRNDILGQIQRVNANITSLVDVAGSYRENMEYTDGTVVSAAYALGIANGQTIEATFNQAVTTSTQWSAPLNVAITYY
T3 sequence (P08191 22-179): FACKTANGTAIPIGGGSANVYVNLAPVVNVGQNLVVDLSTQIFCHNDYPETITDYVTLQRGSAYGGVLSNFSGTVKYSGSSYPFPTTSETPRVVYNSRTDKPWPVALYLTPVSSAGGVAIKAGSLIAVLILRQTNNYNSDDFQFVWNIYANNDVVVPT

Regarding `CC(=O)N[C@H]1[C@H](O[C@@H]2[C@H](O)[C@@H](O)[C@H](O[C@H]3[C@H](O)[C@@H](O)C(O)O[C@@H]3CO)O[C@@H]2CO)O[C@H](CO)[C@H](O)[C@@H]1O[C@@H]1O[C@H](CO)[C@H](O)[C@H](O)[C@H]1O` (stereo partly drawn) [1F, AsialoGM1], the “Disassociation constant^a: / K88 (E. coli)” value in test [1] came out at 11.02 ± 3.9 µM.

On to `OC[C@H]1O[C@H](O[C@H]2[C@@H](O)[C@@H](CO)OC(O)[C@@H]2O)[C@H](O)[C@@H](O)[C@H]1O` (stereo partly drawn) [Galα1-3Gal], for which the “Disassociation constant^a: / K88 (E. coli)” value in test [1] is 0.1603 ± 0.03 µM.

On to `OCC1OC(OCC2OC(OCC3OC(O)C(O)C(OC4OC(CO)C(O)C(O)C4O)C3O)C(O)C(OC3OC(CO)C(O)C(O)C3O)C2O)C(O)C(O)C1O` (stereo not drawn) [Man5], for which the “Disassociation constant^a: / FimH (E. coli)” value in test [2] turned out to be 2.0 ± 0.842 µM. In test [3], the “Disassociation constant^a: / FimH (protein)” value is 607 ± 142 nM.

With Man5NAc, the “Disassociation constant^a: / FimH (E. coli)” value in test [2] came to 0.0274 ± 0.0168 µM. Also, the “Disassociation constant^a: / FimH (protein)” value in test [3] was 25.9 ± 8.9 nM.
